Series [1] can be described thus: Critical aggregation concentration (CAC) by UV absorptivity. It counts as physicochemical. To be noted: PBS, 37° C., absorptivity at 409 nm. The text has this: If one lets: (i) T, m, and P represent the total, the monomeric, and the aggregate concentrations of this macrolide, respectively; (ii) ε represent the apparent molar absorptivity; and (iii) εm and εp represent the molar absorptivity for the monomeric and aggregate components, respectively, then it can be shown that ε=εp+(εm−εp)m/T. See Yamashita K, Janout V, Bernard E M, Armstrong D, and Regen, S L. Micelle/monomer control over the membrane disrupting properties of an amphiphilic antibiotic. J. Am. Chem. Soc. 117 (1995) 6249-6253. At concentrations that are in excess of its CAC, m is constant, and ε is expected to be inversely proportional to T. Thus, by measuring the apparent molar absorptivity as a function of the reciprocal of the concentration of VJ-1138, its CAC value is estimated to be 0.9 μM (from the intercept of two straight lines).
Determination of Critical Aggregation Concentration (CAC) of AmphB and molecular conjugates. Solutions of AmphB and molecular conjugates in DMSO (Sigma-Aldrich) were prepared having a concentration of 1.00 mM. […] The UV spectrum was then recorded in the range of 250-550 nm. The absorbance at 408 nm was plotted as a function of the reciprocal value of the concentration of AmB and the critical aggregation concentration of the molecular conjugates was then determined, graphically.

Series [2] deals with C. gatti. The series is described as follows: Antifungal activities, MIC/MFC. The class given is cell-based. As to conditions: C. gatti; for MFC: read-out: MFC. On the procedure:
(§1) A similar sequence of reactions was carried out using lysine dicholamide in place of cholic acid afforded VJ-1147 of Table 2. To assess the antifungal properties of the diwalled VJ-1138 (Table 2) and 2a of Table 3, their in vitro activities were examined against four clinically relevant microbes, i.e., C. albicans, C. glabrata, C. neoformans, and C. gatti (Table 4).
(§2) Minimum inhibitory concentrations (MIC) and minimum fungicidal concentrations (MFC) are the lowest concentrations that are required for completely inhibiting growth, and killing at least 99% of the fungi, respectively.
(§3) The above molecules were tested for antifungal activity. Minimum inhibitory concentrations (MIC) and minimum fungicidal concentrations (MFC) are the lowest concentrations that are required for completely inhibiting growth, and killing at least 99% of the fungi, respectively. As is apparent from Table 4 below, there is a general trend; i.e., increased antifungal activity is observed as the length of the hydrocarbon chain that separates the facial amphiphile from the Amphotericin B moiety is decreased.

Series [3] concerns C. neoformans. The series can be described thus: Antifungal activities, MIC/MFC. It counts as cell-based. To be noted: C. neoformans; for MFC: read-out: MFC. On the procedure:
as §1, §2, §3

Series [4] deals with C. glabrata. The series is described as follows: Antifungal activities, MIC/MFC. It counts as cell-based. As to conditions: C. glabrata. The method, then:
as §1, §2, §3

The subject of series [5] is C. albicans. The series can be described thus: Antifungal activities, MIC/MFC. The class given is cell-based. As to conditions: C. albicans; for MFC: read-out: MFC. On the procedure: as §1, §2, §3
Series [6] has as its system sheep red blood cells. The series can be described thus: Hemolysis measurements, release of hemoglobin. The class given is cell-based. To be noted: for EH50, concentration required to induce 50% release of hemoglobin from erythrocytes: pH 7.4. On the procedure:
Sheep Red Blood Cells, 10%, in saline (Innovative Research, Novi, Mich.), were diluted in saline (pH 7.4) to a concentration of 4%, which corresponds to 4×10^7 cells/mL. All measurements were carried out in duplicate. Solutions of Amphotericin B (Sigma-Aldrich) were prepared by adding 10 μL of a DMSO solution containing a given concentration of the antibiotic (i.e., ranging from 0.2 mM to 50 mM) to 490 μL of PBS. After the resulting solution was vortex mixed for 30 seconds (s) it was incubated at 37° C. for 15 min. The resulting solution of antibiotic (500 μL) was then mixed with 500 μL of the 4% erythrocyte dispersion at 37° C. in a 1 mL plastic centrifuge vial to give a dispersion that was vortex mixed at slow rate for 5 s. After 1 h of incubation at 37° C., all samples were centrifuged (1500 g, Eppendorf centrifuge 5415C, 5000 rpm) at rt for 5 min. The supernatant (˜0.7 mL) from each plastic vial was carefully separated from sediment using a disposable glass pipette and quickly transferred to test tube. A volume of 50 μL of this supernatant was then transferred to a UV cell containing 500 μL of PBS that was maintained at 37° C. The UV spectrum was then scanned (450-650 nm) and the absorbance at 575 nm used to determine the extent of hemolysis. The extent of 0% and 100% of hemolysis was obtained from A575 values of experiments that were run in absence of AmphB (control, [A575,]o) and in presence, 100 μM AmphB ([A575]max), respectively.

Series [7] has as its system HEK293T cells. The series is described as follows: Inhibition of cell growth, MTT cell viability. It counts as cell-based, human. As to conditions: 1, 10, 50, and 100 μM; FIG. 4. On the procedure:
Human embryonic kidney HEK293 cells were cultured in Dulbecco's modified Eagle's medium (DMEM supplemented with 10% FBS, 100 U/mL penicillin, and 0.1 mg/mL SI-10 streptomycin) in a humidified atmosphere of 5% CO2 at 37° C.
HEK293T cells were seeded in 96-well plates at a density of 6,000 cells/well and incubated overnight. Before treatment, compounds aliquots were solubilized in DMSO to obtain 10 mM stock solutions. Appropriate volumes of these stock solutions were added to DMEM media so the final concentration of DMSO is equal to 1%. After removal of cell media, 50 μL of treatment solutions were added to each well and incubated at 37° C. for 2 h. After treatment, the media was removed, and 100 μL of complete medium was added to each well before returning the plate to the incubator. Cell viability was determined after 72 h using the colorimetric MTT assay. Briefly, 10 μL of a 5 mg/mL MTT stock solution was added to the treated cells and incubated for 2 h at 37° C. The resulting formazan crystals were solubilized in 200 μL of DMSO, and the absorbance was measured at 580 nm using an Infinite 200 PRO microplate reader (Tecan). Cell viability was calculated against control cells treated with the vehicle in DMEM.

Series [8] has as its system Cryptococcus neoformans. The series is described as follows: Cryptococcosis mouse model, brain and lung tissue burden. The class given is in vivo, mice. The method, then: Cryptococcosis mice are infected via tail vein injection of 5×10^4 C. neoformans cells. Inocula are verified by quantitative culture. Animals are identified by temporary ink marking, assigned to groups of 10 mice. Test compounds will be dosed starting on the day of infection. Initial studies will employ i.v., i.p. or oral (gavage) dosing (depending on the compound and the vehicle). Antifungal compounds are given for a period of 7 days. […] On day 8, the lung and brain are evaluated by quantitative culture per gram of tissue, by weighing organs and culturing serially diluted homogenates. These tissue burden studies permit detection of drug efficacy that may not be evident by using a survival endpoint.
The mice were then sacrificed 7 days later for quantitative culture of brain and lung, with cryptococcal cells per gram tissue being expressed as logarithmic values (log 10). Mean values for each group were compared using the t-test.

In series [9] the test system is C. albicans, C. glabrata, C. neoformans, and C. gatti. The series is described as follows: In vitro antifungal activity, general statements on the four microbes. It counts as cell-based. As to conditions: on a molar basis. The method, then: as §1, §2
[10] abbreviates: t-test, 70 mg/kg/day intraperitoneal.

Entries after “also recorded” stand apart in the source; their conditions may differ. Like-named read-outs stand apart in the source and are kept apart here.

As to `C[C@@H]1[C@H](O)[C@@H](C)/C=C/C=C/C=C/C=C/C=C/C=C/C=C/[C@H](O[C@@H]2O[C@H](C)[C@@H](O)[C@H](N)[C@@H]2O)C[C@@H]2O[C@](O)(C[C@@H](O)C[C@@H](O)[C@H](O)CC[C@@H](O)C[C@@H](O)CC(=O)O[C@H]1C)C[C@H](O)[C@H]2C(=O)O` [AmphB, amphotericin B, reference compound], the “critical aggregation concentration (CAC)” value in series [1] was roughly 0.9 µM. Also, the MFC in [2] (first Table 4) came out at 0.5 µM; in [2] (second Table 4 (Example 4)), 0.5 µg/mL; in [3] (Cryptococcus neoformans, first Table 4), 0.5 µM; in series [3] (Cryptococcus neoformans, second Table 4 (Example 4)), 0.5 µg/mL; in [4] (Nakaseomyces glabratus, first Table 4), 1 µM; in series [4] (Nakaseomyces glabratus, second Table 4 (Example 4)) it was 1 µg/mL. Further, the MFC in [5] (Candida albicans, first Table 4, lowest concentration killing at least 99% of the fungi) turned out to be 1 µM; in [5] (Candida albicans, second Table 4 (Example 4)) it was 1 µg/mL. The MIC in series [2] (first Table 4, read-out: MIC) turned out to be 0.3 µM; in series [2] (second Table 4 (Example 4), read-out: MIC) it was 0.3 µg/mL; in series [3] (Cryptococcus neoformans, first Table 4, read-out: MIC), 0.3 µM; in [3] (Cryptococcus neoformans, second Table 4 (Example 4), read-out: MIC) it was 0.3 µg/mL; in series [4] (Nakaseomyces glabratus, first Table 4, read-out: MIC), 0.5 µM; in series [4] (Nakaseomyces glabratus, second Table 4 (Example 4), read-out: MIC), 0.5 µg/mL. Further, the MIC stood at 0.5 µM in series [5] (Candida albicans, first Table 4, lowest concentration completely inhibiting growth, read-out: MIC) and 0.5 µg/mL in series [5] (Candida albicans, second Table 4 (Example 4), read-out: MIC). Besides, in [6] (37° C. in saline), the “EH50, concentration required to induce 50% release of hemoglobin from erythrocytes” value is 4 µM.

`CC1OC(O[C@H]2/C=C/C=C/C=C/C=C/C=C/C=C/C=C/[C@H](C)[C@@H](O)[C@@H](C)[C@H](C)OC(=O)C[C@H](O)C[C@H](O)CC[C@@H](O)[C@H](O)C[C@H](O)C[C@]3(O)C[C@H](O)[C@@H](C(=O)NCCCCCCCC(=O)N(CCCCNC(=O)CC[C@@H](C)C4CCC5C6C(O)CC7CC(O)CCC7(C)C6CC(O)C54C)CCCNC(=O)CC[C@@H](C)C4CCC5C6C(O)CC7CC(O)CCC7(C)C6CC(O)C54C)[C@H](C2)O3)C(O)C(N)C1O` (stereo partly shown) [VJ-1138]: the “toxicity toward HEK293t cells compared with AmphB” value in series [7] is reported as “dramatically reduced”. Further, the mean lung burden in series [8] (CD1 male mice, intraperitoneal DMSO solution, 70 mg/kg/day, 7 days, untreated 6.34) is 5.10 log 10 cryptococcal cells per. Also, the mean brain burden in [8] (CD1 male mice, intraperitoneal DMSO solution, 70 mg/kg/day, 7 days, untreated 8.22) is given as 7.66 log 10 cryptococcal cells per. Besides, the “p, brain tissue burden compared to untreated mice” value in series [8] (setting [10]) is 0.0083. In series [8] (setting [10]), the “p, lung tissue burden compared to untreated mice” value was less than 0.0001. In addition, in series [1], the “critical aggregation concentration (CAC)” value amounted to 0.9 µM. For the same compound, in [9], the “antifungal potency compared with AmphB” value is “approaches that of the native antibiotic; also recorded: approaching that of AmphB”. The MIC stood at 3 µM in series [2] (Table 2, 4th value in brackets, read-out: minimum inhibitory concentration (MIC)); 1 µM in series [2] (first Table 4, read-out: MIC); 2 µM in series [3] (Table 2, 3rd value in brackets, read-out: minimum inhibitory concentration (MIC)); 1 µM in [3] (first Table 4, read-out: MIC); 4 µM in series [4] (Table 2, 2nd value in brackets, read-out: minimum inhibitory concentration (MIC)); 2 µM in series [4] (first Table 4, read-out: MIC). Moreover, the MIC was found to be 2 µM in series [5] (Table 2, 1st value in brackets, read-out: minimum inhibitory concentration (MIC)) and 1 µM in series [5] (first Table 4, lowest concentration completely inhibiting growth, read-out: MIC). Moreover, the MFC in [2] (first Table 4) is recorded as 2 µM; in [3] (first Table 4) it was 2 µM; in series [4] (first Table 4), 4 µM; in series [5] (first Table 4, lowest concentration killing at least 99% of the fungi), 2 µM. Further, the “EH50 relative to AmphB” value in series [6] is given as “approximately 2 orders of magnitude”. The “hemolytic activity relative to AmphB” value in [6] is recorded as “dramatically reduced”. Moreover, the “EH50, concentration required to induce 50% release of hemoglobin from erythrocytes” value in series [6] was 375 µM.

(Values after patent US10322187B2, “Reduced toxicity molecular conjugates of anti-fungal agents” (Lehigh University, priority 2015, dated 2019).)
